Source: patent US6639078B1, “Assays for ligands for nuclear receptors” (SmithKline Beecham Corporation, priority 1998, dated 2003)
Read-outs that look alike come from different tables or passages of the source.

Experiments:
human FXR LBD [1] = target: T1, human FXR LBD (Homo sapiens, UniProt Q96RI1); test: FRET ligand-sensing assay: SRC1 peptide binding to FXR LBD; conditions: 100 μM compound (FIG. 3A/4a)
T1 sequence (Q96RI1 222-472 isoform Q96RI1-2): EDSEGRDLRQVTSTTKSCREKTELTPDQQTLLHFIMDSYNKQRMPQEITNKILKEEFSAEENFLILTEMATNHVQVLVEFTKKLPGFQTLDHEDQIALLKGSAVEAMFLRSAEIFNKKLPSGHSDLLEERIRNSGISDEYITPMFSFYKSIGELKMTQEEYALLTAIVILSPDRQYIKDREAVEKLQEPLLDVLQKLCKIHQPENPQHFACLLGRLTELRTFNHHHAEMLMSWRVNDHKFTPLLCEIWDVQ

full-length human FXR = target: T2, full-length human FXR (Homo sapiens, UniProt Q96RI1); test: CAT reporter assay in CV-1 cells transfected with FXR, human RXRα and FXREhsp27-tk-CAT; conditions: 100 μM bile acid or farnesol, 10 μM steroid or TTNPB
T2 sequence (Q96RI1 1-472 isoform Q96RI1-2): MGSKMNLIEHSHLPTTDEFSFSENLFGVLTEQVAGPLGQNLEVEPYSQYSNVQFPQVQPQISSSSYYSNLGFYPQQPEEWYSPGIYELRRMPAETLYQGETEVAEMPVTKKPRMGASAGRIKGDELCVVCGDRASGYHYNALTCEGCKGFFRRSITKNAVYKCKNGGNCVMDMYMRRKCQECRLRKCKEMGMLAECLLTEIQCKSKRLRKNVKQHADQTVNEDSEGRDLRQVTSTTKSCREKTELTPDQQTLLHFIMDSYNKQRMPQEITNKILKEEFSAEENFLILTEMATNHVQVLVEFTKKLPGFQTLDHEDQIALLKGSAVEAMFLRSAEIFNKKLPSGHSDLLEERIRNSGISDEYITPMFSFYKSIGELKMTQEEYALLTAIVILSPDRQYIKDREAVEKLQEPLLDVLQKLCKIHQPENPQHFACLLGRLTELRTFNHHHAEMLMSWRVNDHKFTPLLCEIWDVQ
T2 sequence (P19793 1-462 partner): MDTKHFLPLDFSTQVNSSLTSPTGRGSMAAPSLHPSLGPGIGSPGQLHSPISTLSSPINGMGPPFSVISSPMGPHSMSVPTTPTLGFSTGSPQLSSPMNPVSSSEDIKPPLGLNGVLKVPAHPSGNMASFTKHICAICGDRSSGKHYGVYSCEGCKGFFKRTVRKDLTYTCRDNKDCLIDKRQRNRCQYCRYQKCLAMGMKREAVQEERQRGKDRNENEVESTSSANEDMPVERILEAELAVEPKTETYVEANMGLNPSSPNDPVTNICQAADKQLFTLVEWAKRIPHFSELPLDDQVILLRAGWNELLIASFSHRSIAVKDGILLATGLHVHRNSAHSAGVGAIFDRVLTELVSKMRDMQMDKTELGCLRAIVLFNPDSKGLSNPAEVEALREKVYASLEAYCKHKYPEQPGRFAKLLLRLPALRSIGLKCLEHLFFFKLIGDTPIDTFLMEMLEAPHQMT
Excerpt: CV-1 cells were transiently transfected with an expression plasmid encoding the human FXR and a reporter construct containing the hsp27-EcRE, a response element that is known to be activated by the FXR/RXR heterodimer.

human FXR LBD [2] = target: T1, human FXR LBD; test: FRET ligand-sensing assay in the presence of 50 μM CDCA (competition with CDCA for FXR binding)
Excerpt: Data are expressed as the means ± SD derived from three independent experiments.
Data were collected using a Wallac Victor™ fluorescence reader in a time-resolved mode.

| Molecule | effect on interaction between FXR LBD and SRC1 peptide (human FXR LBD [1]) | activation of full-length human FXR (full-length human FXR) | other results |
| --- | --- | --- | --- |
| C[C@H](CCC(=O)O)[C@H]1CC[C@H]2[C@@H]3[C@H](O)C[C@@H]4C[C@H](O)CC[C@]4(C)[C@H]3C[C@H](O)[C@]12C [CA, cholic acid] | no effect | inactive |  |
| C[C@H](CCC(=O)O)[C@H]1CC[C@H]2[C@@H]3CC[C@@H]4C[C@H](O)CC[C@]4(C)[C@H]3C[C@H](O)[C@]12C [DCA, deoxycholic acid] |  |  | IC50 (human FXR LBD [2]): 100 µM |
| C/C(=C\c1ccc(C(=O)O)cc1)c1ccc2c(c1)C(C)(C)CCC2(C)C [TTNPB] | did not promote interactions | activate FXR | effect on CDCA-FXR-SRC1 complex (fluorescence signal) (human FXR LBD [2]; in the presence of 50 μM CDCA): disrupted the CDCA-FXR-SRC1 complex in a dose-dependent fashion |
| C[C@H](CCC(=O)O)[C@H]1CC[C@H]2[C@@H]3[C@H](O)[C@@H](O)[C@@H]4C[C@H](O)CC[C@]4(C)[C@H]3CC[C@]12C [α-muricholic acid] |  | no activation |  |
| C[C@H](CCC(=O)O)[C@H]1CC[C@H]2[C@@H]3[C@@H](O)[C@@H](O)[C@@H]4C[C@H](O)CC[C@]4(C)[C@H]3CC[C@]12C [β-muricholic acid] |  | no activation |  |
| muricholic acid [MCA] |  |  | IC50 (human FXR LBD [2]; read-out: half-maximal inhibitor concentration IC50 in the cell-free ligand sensing assay, in the presence of 50 μM CDCA): > 1000 µM |
